For experiment [1], the system named is A-431. Put plainly: In vitro cytotoxicity, microculture tetrazolium assay, A-431. The conditions noted are these: read-out: IC50 A-431. It is filed as cell-based, human. The procedure: (§1) Five cell lines were used:
1 human epidermoid carcinoma, A-431.
(§2) The cells are cultured in RPMI 1640 complete culture medium comprising 10% fetal calf serum, 2 mM glutamine, 50 units/ml of penicillin, 50 μg/ml of streptomycin and 10 mM Hepes, pH 7.4. The cells are distributed on microplates and are exposed to the cytotoxic compounds. The cells are then incubated for four doubling periods (2 days: L1210, P388, or 4 days: A549, HT29, A-431). The number of viable cells is then quantified by a colorimetric assay, the microculture tetrazolium assay (Cancer Res. 1987, 47 939-942).
(§3) The results are expressed as IC50, the concentration of product that inhibits the proliferation of the treated cells by 50% compared with the untreated cells.

Experiment [2] has as its system P388. Put plainly: In vitro cytotoxicity, microculture tetrazolium assay, P388. It is filed as cell-based. The settings on record: Mus musculus, 48 h; P388 murine leukaemia, 2 days incubation, inhibition of proliferation. As to the method: as §1, §2, §3
Experiment [3] deals with L1210 cells. Put plainly: Action on the cell cycle (L1210), flow cytometry. It is filed as cell-based, murine. The settings on record: concentration 0.25 μM, after 21 hours (control: 20%). The procedure: L1210 cells are incubated for 21 hours at 37° C. in the presence of various concentrations of compound tested. The cells are then fixed using 70% ethanol (v/v), washed twice in PBS and incubated for 30 minutes at 20° C. in PBS that contains 100 μg/ml of RNAse and 50 μg/ml of propidium iodide. The distribution of the cells in the various phases of the cell cycle are then analysed by flow cytometry. The results are expressed as a percentage of the cells that have accumulated in the G2+M phase after 21 hours compared with the control (control: 20%). By way of example, at a concentration of 0.25 μM the compounds of Examples 1 and 18 induce a 75% accumulation of the cells in the G2+M phase after 21 hours.
Background: Flow cytometry measures light scatter and fluorescence of single cells or particles in a stream.

For experiment [4], the system named is C38 colon carcinoma. Put plainly: In vivo anti-tumour activity on established C38 colon carcinoma. The settings on record: from a dose of 25 mg/kg, i.v. once a week for 3 weeks (days 10, 17 and 24), B6D2F1 mice, subcutaneous C38. As to the method:
Fragments of C38 colon carcinoma weighing approximately 30 mg were grafted subcutaneously on day 0 onto B6D2F1 mice (Iffa Credo, France). After growth of the tumour, the mice were separated into control (18 animals) and treated (6 to 7 animals) groups, which were homogeneous in respect of the tumour size. The products were administered by the i.v. route once a week for 3 weeks (on days 10, 17 and 24) at their maximum tolerated dose (MTD), MTD/2 and MTD/4.
The tumours were measured twice per week and the tumour volumes were calculated according to the formula: volume (mm^3)=length (mm)×width^2 (mm^2)/2.
The anti-tumour activity is expressed as % T/C: [formula]
VO and Vt denoting, respectively, the initial volume of the tumour and its volume at the time of measurement t.
The optimum dose is the dose that yields the lowest T/C without toxicity (premature death or loss of weight greater than 20%).

The subject of experiment [5] is L1210. Put plainly: In vitro cytotoxicity, microculture tetrazolium assay, L1210. It is filed as cell-based. The conditions noted are these: Mus musculus, 48 h; L1210 murine leukaemia, 2 days incubation, inhibition of proliferation. The procedure:
as §1, §2, §3

The test system of experiment [6] is HT29. Put plainly: In vitro cytotoxicity, microculture tetrazolium assay, HT29. The settings on record: HT-29, 96 h, read-out: IC50 HT29. It is filed as cell-based, human. As to the method: as §1
1 human colon carcinoma, HT29.
as §2, §3

Experiment [7] deals with A549. Put plainly: In vitro cytotoxicity, microculture tetrazolium assay, A549. It is filed as cell-based, human. The settings on record: read-out: IC50 A549. As to the method:
as §1
1 non-small-cell human lung carcinoma, A549.
as §2, §3

Where a name gives a salt, the structure may show the parent alone. Read-outs that look alike come from different tables or passages of the source.

Usually IC50 stands for the concentration needed to halve the response being measured. For the compound `C#CCO/N=C1/c2cc(OC)c(OC)cc2-c2[nH]c3ccc(OCCN(C)C)cc3c21.Cl` [Example 18, (10Z)-8-(2-Dimethylaminoethoxy)-2,3-dimethoxyindeno[1,2-b]indole-10(5H)-one O-(2-Propynyl)oxime Hydrochloride], the IC50 was determined as 174 nM in experiment [1] (96 h, A-431 human epidermoid carcinoma, 4 days incubation); 241 nM in experiment [2]; 104 nM in experiment [5]; 181 nM in experiment [6] (HT29 human colon carcinoma, 4 days incubation); 101 nM in experiment [7] (96 h, A549 non-small-cell human lung carcinoma, 4 days incubation). Further, the “accumulation of the cells in the G2+M phase” value in experiment [3] is recorded as 75%. In experiment [4], the “T/C (tumour volume)” value amounted to 24%.

For `C#CC(O/N=C1/c2cc(OC)c(OC)cc2-c2[nH]c3ccc(OCCN(C)C)cc3c21)c1ccccc1` (centres unmarked) [Example 1, (10Z)-8-(2-Dimethylaminoethoxy)-2,3-dimethoxyindeno[1,2-b]indole-10(5H)-one O-(1-Phenyl-2-Propynyl)oxime Hydrochloride], the 50% inhibitory concentration (IC50) in experiment [1] (Homo sapiens, A-431, 96 h) worked out at 87 nM; in experiment [6] (Homo sapiens), 248 nM; in experiment [7] (Homo sapiens, A549, 96 h), 71 nM. Also, in experiment [3], the “accumulation of the cells in the G2+M phase” value was 75%.
